Data published in patent US10118902B2 (Sanford Burnham Prebys Medical Discovery Institute, priority 2014, dated 2018).

target: neurotensin receptor 1 (NTR1) (Homo sapiens (Human), UniProt P30989); assay: NTR1 dose response, high-content imaging beta-arrestin-GFP assay in NTR1-U2OS cells; type: cell-based; settings: read-out: EC50
Description: The cell lines utilized in the high-content imaging assays, which include the NTR1-, NTR2-, and GPR35-U2OS osteosarcomas, were obtained from the laboratory of Dr. Lawrence Barak at the Duke University Medical Center. The media used in the culture of the cell lines, as well as the assays themselves, consisted of Minimum Essential Medium (15-010-CM) and L-glutamine (25-005-CL) from Cellgro/Mediatech (Manassas, Va.), fetal bovine serum (SH30396.03) from Hyclone (Logan, Utah), penicillin-streptomycin solution (PS-20) from Omega Scientific in Tarzana, Calif., G418 (ant-gn-1) from Invivogen (San Diego, Calif.), and zeocin (R250-01) from Invitrogen (Carlsbad, Calif.). Cell lines were cultured in T225 tissue culture flasks (431082) supplied by Corning (Corning, N.Y.). Additional reagents employed include Dulbecco's Phosphate-Buffered Saline (DPBS) (21-031CV) from Cellgro/Mediatech, Trypsin-EDTA 0.05% (25300) from Invitrogen, paraformaldehyde (30528954) from Acros Organics (Geel, Belgium), Hoechst 33342 (H3570) from Invitrogen. The high-content assays were run in 1536-well plates (29326) supplied by Aurora Biotechnology (Poway, Calif.) and utilized aluminum plate seals (T592100) from E&K Scientific (Santa Clara, Calif.). […]
The high-content imaging based NTR1 primary screen in 1536-well format was utilized to assay the MLSMR library of chemical entities in the following manner. On day one, 4 uL of a cell suspension containing 350,000 NTR1-U2OS cells per mL is added to each well of a 1536-well assay plate. Cells are plated in MEM medium containing 2.5% Fetal Bovine Serum, 1% Penicillin/Streptomycin solution, 1% L-Glutamine, 400 ug/mL G418, and 200 ug/mL Zeocin. The assay plates are then incubated overnight at 37° C., under 5% CO2. Following the overnight incubation, a volume of 60 nL of the compounds at 2 mM in DMSO (final 20 μM, 1% DMSO) was transferred to columns 5-48 of the assay plates using a LabCyte Echo Liquid Handler. Next, 60 nL of DMSO were dispensed to columns 1-4, which served as the positive and neutral control wells. […] The assay plates were centrifuged on an Eppendorf 5810 centrifuge at 1000 rpm for 1 min to ensure even liquid levels in the wells of the assay plates. The assay plates were then returned to the incubator for 1 hour. Following the hour-long incubation at 37° C., the cells in each well were fixed with 4 uL of 6% paraformaldehyde added with a Multidrop Combi. The assay plates were centrifuged as before and incubated at room temperature for 1 hour. On the Kalypsys, plates were then aspirated down to 2.5 uL per well and washed twice with 11 uL per well of DPBS, followed by a final aspiration to 2.5 uL per well. On the Combi dispenser, 5 uL of 5 ug/mL Hoechst 33342 diluted in DPBS was added to each well of assay plates. The plates were again centrifuged as previously described, sealed, and incubated for at least 1 hour prior to being loaded on a PerkinElmer Opera QEHS.
Image acquisition was performed with a 45 plate capacity loader/stacker and the following settings: 40×0.6 NA air objective, acquisition camera set to 2-by-2 binning for an image size of 688 by 512 pixels, beta-arrestin-GFP acquired using 488 nm laser excitation and 540/75 nm emission filters, DAPI (nuclei) using 365 nm Xenon lamp excitation and 450/50 nm emission filters, 3 fields per well. Image analysis was performed using the Acapella Spot Detection Algorithm. For analysis settings and the metrics employed in the data analyses, please refer to supplemental information.
Compounds that were successfully confirmed in quadruplicate at 20 uM were then run in dose response in the primary assay. As with the single concentration hit confirmation, the assay was performed in an identical manner as the primary screen with the following modifications. […]

neurotensin receptor 1 (NTR1), sequence (P30989 whole entry, species assumed): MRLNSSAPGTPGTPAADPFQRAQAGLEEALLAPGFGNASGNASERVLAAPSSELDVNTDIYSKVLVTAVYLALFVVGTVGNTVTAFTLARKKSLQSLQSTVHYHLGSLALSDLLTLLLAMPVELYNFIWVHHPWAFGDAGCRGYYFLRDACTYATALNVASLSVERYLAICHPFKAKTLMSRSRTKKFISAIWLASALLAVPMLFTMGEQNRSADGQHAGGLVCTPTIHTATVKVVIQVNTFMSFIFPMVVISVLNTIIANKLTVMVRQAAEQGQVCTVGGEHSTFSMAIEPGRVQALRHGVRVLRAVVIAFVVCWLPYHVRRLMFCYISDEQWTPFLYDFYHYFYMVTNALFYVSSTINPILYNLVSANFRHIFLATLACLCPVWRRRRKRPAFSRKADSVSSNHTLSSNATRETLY

Structure (SMILES)	EC50
CCCN(C)C(=O)Cc1c(C)nc(C2CC2)nc1N1CCC(c2ccccc2OC)CC1 [Example 158, 2-{2-cyclopropyl-4-[4-(2-methoxy-phenyl)-piperidin-1-yl]-6-methyl-pyrimidin-5-yl}-N-methyl-N-propyl-acetamide]	> 10000 nM
COc1ccccc1N1CCC(Nc2nc(C3CC3)nc3ccc(N(C)CCO)cc23)C1 (stereo not drawn) [Example 154, 2-((2-cyclopropyl-4-((1-(2-methoxyphenyl)pyrrolidin-3-yl)amino)quinazolin-6-yl)(methyl)amino)ethanol]	> 10000 nM
COC1CCCC1N1CCN(c2nc(C3CC3)nc3ccc(N(C)CCO)cc23)CC1 (stereo not drawn) [Example 184, 2-({2-Cyclopropyl-4-[4-(2-methoxy-cyclopentyl)-piperazin-1-yl]-quinazolin-6-yl}-methyl-amino)-ethanol]	> 10000 nM
CCCN(C)Cc1ccc2nc(C3CC3)nc(N3CCC(c4ccccc4OC)CC3)c2c1 [Example 85, {2-cyclopropyl-4-[4-(2-methoxy-phenyl)-piperidin-1-yl]-quinazolin-6-ylmethyl}-methyl-propyl-amine]	> 10000 nM
COc1ccc(F)cc1C1CCN(c2nc(C3CC3)nc3cc(Cl)c(N(C)CCO)cc23)CC1 [Example 113, 2-({7-chloro-2-cyclopropyl-4-[4-(5-fluoro-2-methoxy-phenyl)-piperidin-1-yl]-quinazolin-6-yl}-methyl-amino)-ethanol]	2000 to 10000 nM
COc1ccccc1C1CCN(c2nc(C3CCC3)nc3ccc(N(C)CCN4CCOCC4)cc23)CC1 [Example 46, {2-cyclobutyl-4-[4-(2-methoxy-phenyl)-piperidin-1-yl]-quinazolin-6-yl}-methyl-(2-morpholin-4-yl-ethyl)-amine]	2000 to 10000 nM
COCCN(C)c1ccc2nc(C3CCC3)nc(N3CCC(c4ccccc4OC)CC3)c2c1 [Example 44]	2000 to 10000 nM
COCCN(C)c1ccc2nc(C3CC3)nc(N3CCC(c4ccccc4N4CCC4)CC3)c2c1 [Example 7, {4-[4-(2-azetidin-1-yl-phenyl)-piperidin-1-yl]-2-cyclopropyl-quinazolin-6-yl}-(2-methoxy-ethyl)-methyl-amine]	2000 to 10000 nM
CCCN(C)c1cc2c(N3CCC(c4cc(F)ccc4OC)CC3)nc(C3CC3)nc2cc1C [Example 123, {2-cyclopropyl-4-[4-(5-fluoro-2-methoxy-phenyl)-piperidin-1-yl]-7-methyl-quinazolin-6-yl}-methyl-propyl-amine]	> 10000 nM
CCCN(C)c1ccc2nc(C3CC3)nc(N3CCC(c4ccccc4OC)CC3=O)c2c1 (stereo not drawn) [Example 102, 1-[2-cyclopropyl-6-(methyl-propyl-amino)-quinazolin-4-yl]-4-(2-methoxy-phenyl)-piperidin-2-one]	> 10000 nM
COC(=O)Cc1c(C)nc(N2CCC(c3ccccc3OC)CC2)nc1C1CC1 [Example 161, {4-cyclopropyl-2-[4-(2-methoxy-phenyl)-piperidin-1-yl]-6-methyl-pyrimidin-5-yl}-acetic acid methyl ester]	> 10000 nM

Further lines, results first:

EC50	Structure (SMILES)
< 500 nM	COc1ccccc1C1CCN(c2nc(C3CC3)nc3c(C)cc(N(C)CCO)cc23)CC1 [Example 125, 2-({2-cyclopropyl-4-[4-(2-methoxy-phenyl)-piperidin-1-yl]-8-methyl-quinazolin-6-yl}-methyl-amino)-ethanol]
500 to 2000 nM	COc1ccccc1C1CCN(c2nc(N(C)C)nc3ccc(N(C)CCO)cc23)CC1 [Example 94]
500 to 2000 nM	COc1ccccc1C1CCN(c2nc(C3CC3)nc3cnc(N(C)CCN4CCOCC4)cc23)CC1 [Example 194, 2-cyclopropyl-4-(4-(2-methoxyphenyl)piperidin-1-yl)-N-methyl-N-(2-morpholinoethyl)pyrido[3,4-d]pyrimidin-6-amine]
500 to 2000 nM	COc1ccccc1C1CCN(c2nc(C3CC3)nc3ccc(N4CC[C@H](OC)C4)cc23)CC1 [Example 174, (S)-2-cyclopropyl-4-(4-(2-methoxyphenyl)piperidin-1-yl)-6-(3-methoxypyrrolidin-1-yl)quinazoline]
500 to 2000 nM	COc1cc(F)ccc1C1CCN(c2nc(C3CC3)nc3ccc(N(C)CCO)cc23)CC1 [Example 108, 2-({2-cyclopropyl-4-[4-(4-fluoro-2-methoxy-phenyl)-piperidin-1-yl]-quinazolin-6-yl}-methyl-amino)-ethanol]
2000 to 10000 nM	CCCN(C)c1cccc2nc(C3CC3)nc(N3CCC(c4ccccc4OC)CC3)c12 [Example 131, {2-cyclopropyl-4-[4-(2-methoxy-phenyl)-piperidin-1-yl]-quinazolin-5-yl}-methyl-propyl-amine]
2000 to 10000 nM	COc1ccccc1C1CCN(c2nc(C3(C(F)(F)F)CCCC3)nc3ccc(N(C)CCN4CCOCC4)cc23)CC1 [Example 56, [4-[4-(2-methoxy-phenyl)-piperidin-1-yl]-2-(1-trifluoromethyl-cyclopentyl)-quinazolin-6-yl]-methyl-(2-morpholin-4-yl-ethyl)-amine]
500 to 2000 nM	COc1ccc(F)cc1C1CCN(c2nc(C3CC3)nc3ccc(N(C)CCO)cc23)CC1 [Example 109, 2-({2-cyclopropyl-4-[4-(5-fluoro-2-methoxy-phenyl)-piperidin-1-yl]-quinazolin-6-yl}-methyl-amino)-ethanol]
2000 to 10000 nM	COc1cccnc1C1CCN(c2nc(C3(F)CC3)nc3c(F)cc(N(C)CCO)cc23)CC1 [Example 216, 2-{[8-Fluoro-2-(1-fluoro-cyclopropyl)-4-(3-methoxy-3′,4′,5′,6′-tetrahydro-2′H-[2,4′]bipyridinyl-1′-yl)-quinazolin-6-yl]-methyl-amino}-ethanol]
500 to 2000 nM	COc1nccnc1C1CCN(c2nc(C3(CF)CC3)nc3ccc(N(C)CCO)cc23)CC1 [Example 219, 2-({2-(1-Fluoromethyl-cyclopropyl)-4-[4-(3-methoxy-pyrazin-2-yl)-piperidin-1-yl]-quinazolin-6-yl}-methyl-amino)-ethanol]
< 500 nM	COc1ccccc1C1CCN(c2nc(C3CC3)nc3ccc(N(C)CCO)c(Cl)c23)CC1 [Example 103, 2-({5-chloro-2-cyclopropyl-4-[4-(2-methoxy-phenyl)-piperidin-1-yl]-quinazolin-6-yl}-methyl-amino)-ethanol]
2000 to 10000 nM	COCCN(C)Cc1ccc2nc(C3CC3)nc(N3CCC(c4ccccc4OC)CC3)c2c1 [Example 87, {2-cyclopropyl-4-[4-(2-methoxy-phenyl)-piperidin-1-yl]-quinazolin-6-ylmethyl}-(2-methoxy-ethyl)-methyl-amine]
< 500 nM	COc1ccccc1C1CCN(c2nc(C3CC3)nc3ccc(N(C)CC(=O)O)cc23)CC1 [Example 179, ({2-Cyclopropyl-4-[4-(2-methoxy-phenyl)-piperidin-1-yl]-quinazolin-6-yl}-methyl-amino)-acetic acid]
500 to 2000 nM	CN(CCN1CCOCC1)c1ccc2nc(C3CC3)nc(N3CCC(c4ccccc4N4CCC4)CC3)c2c1 [Example 8, {4-[4-(2-azetidin-1-yl-phenyl)-piperidin-1-yl]-2-cyclopropyl-quinazolin-6-yl}-methyl-(2-morpholin-4-yl-ethyl)-amine]
500 to 2000 nM	CCCN(C)c1ccc2nc(C3(F)CC3)nc(N3CCC(c4ccccc4OC)CC3)c2c1 [Example 20, {2-(1-fluoro-cyclopropyl)-4-[4-(2-methoxy-phenyl)-piperidin-1-yl]-quinazolin-6-yl}-methyl-propyl-amine]
< 500 nM	COc1ccccc1C1CCN(c2nc(C3(F)CC3)nc3c(Cl)cc(N(C)CCO)cc23)CC1 [Example 201, 2-({8-Chloro-2-(1-fluoro-cyclopropyl)-4-[4-(2-methoxy-phenyl)-piperidin-1-yl]-quinazolin-6-yl}-methyl-amino)-ethanol]
